Experimental data: PubChem BioAssay (NCI)
Where “and” joins values, the source holds several entries; their conditions need not be identical. Equal values may be shown once.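 Method: 48-hour compound exposure of cells in 96-well plates, five concentrations, linear interpolation of endpoints. The concentration for 50% growth inhibition is given as GI50. At the TGI there is no net growth.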 Calls of active or inactive are those of the source. No stated cut-off is given here; in the data, active means GI50 below about 0.43 µM; inactive means the rest.

How the values were obtained:
Assay in all cases: growth of human tumour cells (NCI), 48 h
SK-MEL-2 melanoma = system: SK-MEL-2 melanoma
HT29 colon = system: HT29 colon
SK-MEL-5 melanoma = system: SK-MEL-5 melanoma
MOLT-4 leukemia = system: MOLT-4 leukemia
SF-539 CNS = system: SF-539 CNS
HOP-92 NSCLC = system: HOP-92 NSCLC
K-562 leukemia = system: K-562 leukemia
CCRF-CEM leukemia = system: CCRF-CEM leukemia
786-0 renal = system: 786-0 renal

CC(=O)c1ccc2c(c1)CC1(C2)Cc2ccccc2C1=O (stereo not drawn)
TGI (SK-MEL-2 melanoma): > 100 µM
TGI (HT29 colon): 43.8 µM
TGI (SK-MEL-5 melanoma): 65.3 µM
TGI (MOLT-4 leukemia): > 100 µM
TGI (SF-539 CNS): > 100 µM
TGI (HOP-92 NSCLC): 95.9 µM
TGI (K-562 leukemia): > 100 µM
TGI (CCRF-CEM leukemia): > 100 µM
TGI (786-0 renal): > 100 µM

CC1(C)[C@H]2CC[C@@]13C(=O)N1C(=O)O[C@@H]([C@H]1Cl)C(Cl)(COCc1ccccc1)C(=O)OCCO[C@H]3C2 (stereo partly drawn)
TGI (SK-MEL-2 melanoma): > 100 µM
TGI (HT29 colon): > 100 µM
TGI (SK-MEL-5 melanoma): > 100 µM
TGI (MOLT-4 leukemia): 76.9 µM
TGI (SF-539 CNS): > 100 µM
TGI (HOP-92 NSCLC): > 100 µM
TGI (K-562 leukemia): > 100 µM
TGI (CCRF-CEM leukemia): > 100 µM
TGI (786-0 renal): > 100 µM

COc1ccc(N(C(=O)Nc2ccc(Cl)c(Cl)c2)C2c3cccn3C(=O)N2c2ccc(Cl)c(Cl)c2)cc1 (stereo not drawn)
TGI (SK-MEL-2 melanoma): > 100 µM
TGI (HT29 colon): > 100 µM
TGI (SK-MEL-5 melanoma): > 100 µM
TGI (MOLT-4 leukemia): > 100 µM
TGI (SF-539 CNS): > 100 µM
TGI (HOP-92 NSCLC): > 100 µM
TGI (K-562 leukemia): > 100 µM
TGI (CCRF-CEM leukemia): > 100 µM
TGI (786-0 renal): > 100 µM

COc1ccc(NC(=S)NC(=O)c2ccc3c(c2)Sc2ccccc2O3)c([N+](=O)[O-])c1
TGI (SK-MEL-2 melanoma): 96.2 µM
TGI (HT29 colon): > 100 µM
TGI (SK-MEL-5 melanoma): > 100 µM
TGI (MOLT-4 leukemia): > 100 µM
TGI (SF-539 CNS): > 100 µM
TGI (HOP-92 NSCLC): 44.9 µM
TGI (K-562 leukemia): > 100 µM
TGI (CCRF-CEM leukemia): > 100 µM
TGI (786-0 renal): 56.5 µM

CC(C)OC(=O)OCSc1ccccc1N=Cc1cccc([N+](=O)[O-])c1
TGI (SK-MEL-2 melanoma): > 10 µM
TGI (HT29 colon): > 10 µM
TGI (SK-MEL-5 melanoma): > 10 µM
TGI (MOLT-4 leukemia): > 10 µM
TGI (SF-539 CNS): > 10 µM
TGI (HOP-92 NSCLC): > 10 µM
TGI (K-562 leukemia): > 10 µM
TGI (CCRF-CEM leukemia): > 10 µM
TGI (786-0 renal): > 10 µM

c1c2c(cc(-n3nnc4c3CCCCCC4)c1-n1nnc3c1CCCCCC3)CCCCCC2
TGI (SK-MEL-2 melanoma): 34.6 µM
TGI (HT29 colon): 19.8 µM
TGI (SK-MEL-5 melanoma): 24.7 µM
TGI (MOLT-4 leukemia): 11 µM
outcome (SF-539 CNS): inactive
TGI (HOP-92 NSCLC): 12.6 µM
TGI (K-562 leukemia): 40.6 µM
TGI (CCRF-CEM leukemia): 27.3 µM
outcome (786-0 renal): inactive

CCOC(=O)C#Cc1ccccc1
TGI (SK-MEL-2 melanoma): 5.86 µM
TGI (HT29 colon): 21.4 µM
TGI (SK-MEL-5 melanoma): 17.4 µM
TGI (MOLT-4 leukemia): 12.8 µM
TGI (SF-539 CNS): 19.3 µM
TGI (HOP-92 NSCLC): 36.9 µM
TGI (K-562 leukemia): 8.91 µM
TGI (CCRF-CEM leukemia): 12.4 µM
TGI (786-0 renal): 21.5 µM

CCOC(=O)/C=C(\C(=O)OCC)n1ccc(=O)n(Cc2cn(COCCOC(C)=O)nn2)c1=O
TGI (SK-MEL-2 melanoma): 47.7 µM
TGI (HT29 colon): 30.8 µM
TGI (SK-MEL-5 melanoma): 47.1 µM
TGI (MOLT-4 leukemia): 39.3 µM
TGI (SF-539 CNS): 38.9 µM
TGI (HOP-92 NSCLC): 35.3 µM
TGI (K-562 leukemia): > 100 µM
TGI (CCRF-CEM leukemia): 11.9 µM
TGI (786-0 renal): 32.9 µM

C=C(CN(C)C)C(=O)c1ccccc1[N+](=O)[O-]
GI50 (SK-MEL-2 melanoma): 17.4 µM
TGI (SK-MEL-2 melanoma): 33.2 µM and 35 µM
GI50 (HT29 colon): 3.31 µM
TGI (HT29 colon): 39.1 µM and 16.1 µM
GI50 (SK-MEL-5 melanoma): 16.9 µM
TGI (SK-MEL-5 melanoma): 33.4 µM and 39.6 µM
GI50 (MOLT-4 leukemia): 4.01 µM and 0.606 µM
TGI (MOLT-4 leukemia): 26.7 µM and 5.83 µM
GI50 (SF-539 CNS): 18.6 µM
TGI (SF-539 CNS): 71.4 µM and 40.4 µM
GI50 (HOP-92 NSCLC): 2.11 µM
TGI (HOP-92 NSCLC): 18.5 µM and 5.11 µM
GI50 (K-562 leukemia): 3.38 µM
TGI (K-562 leukemia): 27.7 µM and 12.9 µM
GI50 (CCRF-CEM leukemia): 2.7 µM and 2.18 µM
TGI (CCRF-CEM leukemia): 8.06 µM
TGI (786-0 renal): 27 µM

S=c1cc(-c2ccc3c(c2)OCO3)s[nH]1
TGI (SK-MEL-2 melanoma): > 100 µM
TGI (HT29 colon): > 100 µM
TGI (SK-MEL-5 melanoma): > 100 µM
TGI (MOLT-4 leukemia): > 100 µM
TGI (SF-539 CNS): > 100 µM
TGI (HOP-92 NSCLC): > 100 µM
TGI (K-562 leukemia): > 100 µM
TGI (CCRF-CEM leukemia): > 100 µM
TGI (786-0 renal): > 100 µM

CC(=O)c1cnc2oc3ccc(O)cc3c2c1-c1ccccc1
TGI (SK-MEL-2 melanoma): > 100 µM
TGI (HT29 colon): > 100 µM
TGI (SK-MEL-5 melanoma): > 100 µM
TGI (MOLT-4 leukemia): > 100 µM
TGI (SF-539 CNS): 46.2 µM
TGI (HOP-92 NSCLC): > 100 µM
TGI (K-562 leukemia): > 100 µM
TGI (CCRF-CEM leukemia): > 100 µM
TGI (786-0 renal): > 100 µM

CCOC(=O)c1cn2c(n1)sc1cc(Cl)cc(Cl)c12
TGI (SK-MEL-2 melanoma): > 100 µM
TGI (HT29 colon): > 100 µM
TGI (SK-MEL-5 melanoma): > 100 µM
TGI (MOLT-4 leukemia): > 100 µM
TGI (SF-539 CNS): > 100 µM
TGI (HOP-92 NSCLC): > 100 µM
TGI (K-562 leukemia): > 100 µM
TGI (CCRF-CEM leukemia): > 100 µM
TGI (786-0 renal): > 100 µM

COc1cc2c(c(O)c1OC)C(=O)C(Cc1ccc(O)cc1)CO2 (stereo not drawn)
TGI (SK-MEL-2 melanoma): > 100 µM
TGI (HT29 colon): > 100 µM
TGI (SK-MEL-5 melanoma): 49 µM
TGI (MOLT-4 leukemia): > 100 µM
TGI (SF-539 CNS): 41.7 µM
TGI (HOP-92 NSCLC): > 100 µM
TGI (K-562 leukemia): > 100 µM
TGI (CCRF-CEM leukemia): > 100 µM
TGI (786-0 renal): > 100 µM

CNC(=O)CCCNC(=O)CCCC(=O)N(C)C
TGI (SK-MEL-2 melanoma): > 100 µM
TGI (HT29 colon): > 100 µM
TGI (SK-MEL-5 melanoma): > 100 µM
TGI (MOLT-4 leukemia): > 100 µM
TGI (SF-539 CNS): > 100 µM
TGI (HOP-92 NSCLC): > 100 µM
TGI (K-562 leukemia): > 100 µM
TGI (CCRF-CEM leukemia): > 100 µM
TGI (786-0 renal): > 100 µM

NC(=O)N/N=C1\CC2C3CC4C2C4C13 (stereo not drawn)
TGI (SK-MEL-2 melanoma): > 100 µM
TGI (HT29 colon): > 100 µM
TGI (SK-MEL-5 melanoma): > 100 µM
TGI (MOLT-4 leukemia): > 100 µM
TGI (SF-539 CNS): > 100 µM
TGI (HOP-92 NSCLC): > 100 µM
TGI (K-562 leukemia): > 100 µM
TGI (CCRF-CEM leukemia): > 100 µM
TGI (786-0 renal): > 100 µM

C[n+]1c(-c2ccc(/C=C/C=N\NC(=O)c3ccc(C(=O)N/N=C\C=C\c4ccc(-c5cn6ccccc6[n+]5C)cc4)cc3)cc2)cn2ccccc21
TGI (SK-MEL-2 melanoma): > 100 µM
TGI (HT29 colon): > 100 µM
TGI (SK-MEL-5 melanoma): > 100 µM
TGI (MOLT-4 leukemia): > 100 µM
TGI (SF-539 CNS): > 100 µM
TGI (HOP-92 NSCLC): > 100 µM
TGI (K-562 leukemia): > 51.2 µM
TGI (CCRF-CEM leukemia): > 58.2 µM
TGI (786-0 renal): > 56.2 µM

C\C(=N/N=C1/C(=C\N(C)C)C(=O)NC(=O)N1C)c1ccc(Cl)cc1
TGI (SK-MEL-2 melanoma): > 100 µM
TGI (HT29 colon): > 100 µM
TGI (SK-MEL-5 melanoma): > 100 µM
TGI (MOLT-4 leukemia): > 100 µM
TGI (SF-539 CNS): > 100 µM
TGI (HOP-92 NSCLC): > 100 µM
TGI (K-562 leukemia): > 100 µM
TGI (CCRF-CEM leukemia): > 100 µM
TGI (786-0 renal): > 100 µM

O=c1cc(N2CCCC2)[nH]c(=O)n1-c1ccccc1
TGI (SK-MEL-2 melanoma): > 100 µM
TGI (HT29 colon): > 100 µM
TGI (SK-MEL-5 melanoma): > 100 µM
TGI (MOLT-4 leukemia): > 100 µM
TGI (SF-539 CNS): > 100 µM
TGI (HOP-92 NSCLC): > 100 µM
TGI (K-562 leukemia): > 100 µM
TGI (CCRF-CEM leukemia): > 100 µM
TGI (786-0 renal): > 100 µM

COc1cc2c(cc1Cc1c(F)cccc1Cl)nc(-c1c(F)cccc1Cl)n2Cc1c(F)cccc1Cl
TGI (SK-MEL-2 melanoma): 47.5 µM
TGI (HT29 colon): > 100 µM
TGI (SK-MEL-5 melanoma): > 100 µM
TGI (MOLT-4 leukemia): > 100 µM
TGI (SF-539 CNS): 60.1 µM
TGI (HOP-92 NSCLC): 37.6 µM
TGI (K-562 leukemia): > 100 µM
TGI (CCRF-CEM leukemia): > 100 µM
TGI (786-0 renal): 64.2 µM

CC(C)(C)c1cc(C(=O)/C=C/c2ccc3c(c2)OCO3)cc(C(C)(C)C)c1O
TGI (SK-MEL-2 melanoma): 10.4 µM
TGI (HT29 colon): 28 µM
TGI (SK-MEL-5 melanoma): 16.6 µM
TGI (MOLT-4 leukemia): > 26.6 µM
TGI (SF-539 CNS): 20 µM
TGI (HOP-92 NSCLC): > 100 µM
TGI (K-562 leukemia): > 39.1 µM
TGI (CCRF-CEM leukemia): 16.3 µM
TGI (786-0 renal): 21 µM
